US5034543A, “Ascorbic acid derivative and use as antioxidants” (Nippon Hypox Laboratories Incorporated, priority 1989, dated 1991)
pIC50: −log10 of the molar value.

What was measured:
[1] = Antioxidant action examined by using stable radicals: reduction activity of DPPH (Blois method, absorbance at 517 nm); conditions: 0.1 mM DPPH in ethanol, after 20 minutes, read-out: 50% radical eliminating concentration
Method: (Antioxidant action examined by using stable radicals)
Reduction activity of α,α-diphenyl-β-picrylhydrazyl (DPPH) which was a stable free radical was examined according to the M. S. Blois method (Nature, vol. 181, page. 1199, 1958) and used as an index to antioxidant action. Thus, specimens were added to 3 ml of a 0.1 mM DPPH solution in ethanol, and absorbance at a wavelength of 517 nm was measured using a spectrophotometer after 20 minutes. The difference in absorbance from the solvent control [0.5% or less of dimethylformamide (DMF)] was taken as the reduction activity.

[2] = Effects on formazan formation in the xanthine-xanthine oxidase-Nitrotetrazolium Blue system; format: biochemical; conditions: for Inhibition ratio of formazan formation: pH 7.8, 30° C., 10 minutes; for inhibition of formazan formation (result in words): xanthine-xanthine oxidase-NTB system
Method: (Effects on formazan formation in the xanthine-xanthine oxidase-Nitrotetrazolium Blue system)
Specimens were added to a 0.05M phosphate buffer solution (pH 7.8) containing xanthine, EDTA 2Na and Nitrotetrazolium Blue (NTB) so as to provide the respective final concentrations of 5×10^-5 M, 1×10^-4 M and 5×10^-4 M and warmed at 30° C. for 3 minutes. Xanthine oxidase (manufactured by Sigma Corp.) was added, and the resulting specimens were warmed at 30° C. for 10 minutes to colorimetrically determine formazan formed by superoxide anion radicals. The inhibition ratio of formazan formation was determined from the results at concentrations of 0.5 mM and 4 mM of each specimen.

Row | SMILES | pIC50 [1] | other results
1 | CCOC1=C(O)C(=O)O[C@@H]1[C@@H]1COC(C)(C)O1 [Compound 025] | 4.66 | 
2 | CC1(C)OC[C@@H]([C@H]2OC(=O)C(O)=C2OCCCCCCCCCCCCCCCCC(=O)O)O1 [Compound 009] | 4.60 | 
3 | CCOC(=O)C(C)OC1=C(O)C(=O)O[C@@H]1[C@@H]1COC(C)(C)O1 (stereo partly shown) [Compound 014] | 4.59 | 
4 | CCCCCCCCOC1=C(O)C(=O)O[C@@H]1[C@@H]1COC(C)(C)O1 [Compound 003] | 4.57 | 
5 | CCC(=O)COC1=C(O)C(=O)O[C@@H]1[C@@H]1COC(C)(C)O1 [Compound 022, L-5,6-O-isopropylidene-3-O-(3-butanone) ascorbic acid] | 4.70 | Inhibition ratio of formazan formation ([2]; 0.5 mM): 22.6%; Inhibition ratio of formazan formation ([2]; 4 mM): 26.7%; inhibition of formazan formation (result in words) [2]: remarkably inhibited formazan formation
6 | CC1(C)OC[C@@H]([C@H]2OC(=O)C(O)=C2OCCO)O1 [Compound 012] | 4.46 | 
7 | CCOC(=O)COC1=C(O)C(=O)O[C@@H]1[C@@H]1COC(C)(C)O1 [Compound 020] | 4.64 | 
8 | CC(C)(C)OC(=O)COC1=C(O)C(=O)O[C@@H]1[C@@H]1COC(C)(C)O1 [Compound 017] | 4.60 | 
9 | CCOC(=O)CCCOC1=C(O)C(=O)O[C@@H]1[C@@H]1COC(C)(C)O1 [Compound 010] | 4.80 | 
10 | CC1(C)OC[C@@H]([C@H]2OC(=O)C(O)=C2OCc2cccnc2)O1 [Compound 007] | 4.64 | 
11 | CC(=O)COC1=C(O)C(=O)O[C@@H]1[C@@H]1COC(C)(C)O1 [Compound 021, L-5,6-O-isopropylidene-3-O-methylcarbomethylascorbic acid] | 4.77 | Inhibition ratio of formazan formation ([2]; 0.5 mM): 9.2%; Inhibition ratio of formazan formation ([2]; 4 mM): 47.4%; inhibition of formazan formation (result in words) [2]: remarkably inhibited formazan formation
12 | CC1(C)OC[C@@H]([C@H]2OC(=O)C(O)=C2OCc2ccccc2)O1 [Compound 006] | 4.66 | 
13 | C=CCOC1=C(O)C(=O)O[C@@H]1[C@@H]1COC(C)(C)O1 [Compound 011] | 4.48 | 
14 | CCCCOC1=C(O)C(=O)O[C@@H]1[C@@H]1COC(C)(C)O1 [Compound 004] | 4.60 | 
15 | CCCCOC(=O)COC1=C(O)C(=O)O[C@@H]1[C@@H]1COC(C)(C)O1 [Compound 019] | 4.60 | 
16 | CCCCCCCCCCOC(=O)COC1=C(O)C(=O)O[C@@H]1[C@@H]1COC(C)(C)O1 [Compound 018] | 4.55 | 
17 | CCOC(=O)CCCCOC1=C(O)C(=O)O[C@@H]1[C@@H]1COC(C)(C)O1 [Compound 008] | 4.80 | 
18 | CCCCCCCCCCCCCCCCCCOC1=C(O)C(=O)O[C@@H]1[C@@H]1COC(C)(C)O1 [Compound 001] | 4.52 | 
19 | COCOC1=C(O)C(=O)O[C@@H]1[C@@H]1COC(C)(C)O1 [Compound 013] | 4.77 | 
20 | CC1(C)OC[C@@H]([C@H]2OC(=O)C(O)=C2OCC(=O)OCc2ccccc2)O1 [Compound 016] | 4.60 | 
21 | CC1(C)OC[C@@H]([C@H]2OC(=O)C(O)=C2OCC(=O)O)O1 [Compound 015] | 4.51 | 
22 | CCC(C)OC1=C(O)C(=O)O[C@@H]1[C@@H]1COC(C)(C)O1 (stereo partly shown) [Compound 005] | 4.49 | 
23 | CC1(C)OC[C@@H]([C@H]2OC(=O)C(O)=C2OCC(=O)c2ccccc2)O1 [Compound 023] | 4.62 | 
24 | CCCCCCCCCCCCOC1=C(O)C(=O)O[C@@H]1[C@@H]1COC(C)(C)O1 [Compound 002] | 4.54 | 
25 | CC1(C)OC[C@@H]([C@H]2OC(=O)C(O)=C2OCC#N)O1 [Compound 024] | 4.51 | 
